This is an account of results in PubChem BioAssay AID248 (DTP/NCI, 2004).

Values joined by “and” are separate entries in the source; they are usually repeats but may differ in a detail not shown here. Equal values may be shown once. Toxic doses and inconclusive results are not listed.

In this test the test system is L1210 leukemia ip in BDF1 mice, survival T/C. In words: NCI In Vivo Anticancer Drug Screen. Data for tumor model L1210 Leukemia (intraperitoneal) in B6D2F1 (BDF1) mice. The following applies: endpoint: mean survival time, higher = longer survival. The method, boiled down:
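Each compound was tested against a transplantable tumor grown in mice. The endpoint was survival, with treated animals benchmarked against vehicle controls as a simple ratio.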

Setting [1] is: dose: 100.0 mg/kg/injection, schedule: Q01DX009 (ip), vehicle: saline.
[2] abbreviates: dose: 100.0 mg/kg/injection, schedule: Q04DX003 (ip), vehicle: saline.
Setting [3] is: dose: 200.0 mg/kg/injection, schedule: Q01DX009 (ip), vehicle: saline.
Where [4] appears, read: dose: 200.0 mg/kg/injection, schedule: Q04DX003 (ip), vehicle: saline.
Setting [5] is: dose: 400.0 mg/kg/injection, schedule: Q01DX009 (ip), vehicle: saline.
Setting [6] is: dose: 400.0 mg/kg/injection, schedule: Q04DX003 (ip), vehicle: saline.
[7] abbreviates: dose: 100.0 mg/kg/injection, schedule: Q01DX001 (ip), vehicle: saline.
Setting [8] is: dose: 200.0 mg/kg/injection, schedule: Q01DX001 (ip), vehicle: saline.
[9] abbreviates: dose: 400.0 mg/kg/injection, schedule: Q01DX001 (ip), vehicle: saline.
The mark [10] stands for this setting: dose: 25.0 mg/kg/injection, schedule: Q01DX009 (ip), vehicle: saline.
[11] abbreviates: dose: 50.0 mg/kg/injection, schedule: Q01DX009 (ip), vehicle: saline.
Setting [12] is: dose: 100.0 mg/kg/injection, schedule: Q04DX003 (ip), vehicle: saline with Tween-80.
Setting [13] is: dose: 200.0 mg/kg/injection, schedule: Q04DX003 (ip), vehicle: saline with Tween-80.
Where [14] appears, read: dose: 100.0 mg/kg/injection, schedule: Q04DX003 (ip), vehicle: Klucel (hydroxypropylcellulose) (HPC).
Where [15] appears, read: dose: 200.0 mg/kg/injection, schedule: Q04DX003 (ip), vehicle: Klucel (hydroxypropylcellulose) (HPC).
Where [16] appears, read: dose: 75.0 mg/kg/injection, schedule: Q01DX001 (ip), vehicle: saline.
Setting [17] is: dose: 150.0 mg/kg/injection, schedule: Q01DX001 (ip), vehicle: saline.
[18] abbreviates: dose: 300.0 mg/kg/injection, schedule: Q01DX001 (ip), vehicle: saline.
[19] abbreviates: dose: 50.0 mg/kg/injection, schedule: Q01DX009 (ip), vehicle: saline with Tween-80.
Setting [20] is: dose: 100.0 mg/kg/injection, schedule: Q01DX009 (ip), vehicle: saline with Tween-80.
Where [21] appears, read: dose: 200.0 mg/kg/injection, schedule: Q01DX009 (ip), vehicle: saline with Tween-80.
Where [22] appears, read: dose: 50.0 mg/kg/injection, schedule: Q01DX001 (ip), vehicle: Klucel (hydroxypropylcellulose) (HPC).
Setting [23] is: dose: 100.0 mg/kg/injection, schedule: Q01DX001 (ip), vehicle: Klucel (hydroxypropylcellulose) (HPC).
The mark [24] stands for this setting: dose: 200.0 mg/kg/injection, schedule: Q01DX001 (ip), vehicle: Klucel (hydroxypropylcellulose) (HPC).
Setting [25] is: dose: 400.0 mg/kg/injection, schedule: Q01DX001 (ip), vehicle: Klucel (hydroxypropylcellulose) (HPC).

For `COc1ccccc1P(c1ccccc1OC)c1ccccc1OC`, the T/C is, setting by setting: under setting [1], 95 % of control; under setting [2], 113 % of control; under setting [3], 92 % of control; under setting [4], 102 % of control; under setting [5], 98 % of control; under setting [6], 101 % of control.
As to `Cc1noc(/N=C/c2cccc(Cl)c2)c1C`, the T/C by setting is: under setting [7], 101 % of control; under setting [8], 105 % of control; under setting [9], 101 % of control.
`CCN(CC)CCOC(=S)Nc1ccccc1`: the T/C is, setting by setting: under setting [10], 100 % of control; under setting [11], 109 % of control; under setting [1], 96 % of control and 105 % of control.
Turning to `CCCCCCCCCCCCCCCC(=O)OCCCCCCCCCC`, the T/C reads like this: under setting [12], 100 % of control; under setting [13], 87 % of control; (dose: 400.0 mg/kg/injection, schedule: Q04DX003 (ip), vehicle: saline with Tween-80) 95 % of control.
On to `COc1ccccc1NC(=O)NCCCCCCNC(=O)Nc1ccccc1OC`, for which the T/C is, setting by setting: (dose: 100.0 mg/kg/injection, schedule: Q01DX009 (ip), vehicle: Klucel (hydroxypropylcellulose) (HPC)) 89 % of control; (dose: 200.0 mg/kg/injection, schedule: Q01DX009 (ip), vehicle: Klucel (hydroxypropylcellulose) (HPC)) 92 % of control; (dose: 400.0 mg/kg/injection, schedule: Q01DX009 (ip), vehicle: Klucel (hydroxypropylcellulose) (HPC)) 94 % of control.
For `CC(C(=O)c1ccc(F)cc1)C(O)(C(F)(F)F)C(F)(F)F` (stereo not given), the T/C is 94 % of control under setting [14]; 95 % of control under setting [15]; 103 % of control (dose: 400.0 mg/kg/injection, schedule: Q04DX003 (ip), vehicle: Klucel (hydroxypropylcellulose) (HPC)).
`O=C(O)CNCc1ccccc1`: the T/C is 102 % of control under setting [2], 96 % of control under setting [4] and 96 % of control under setting [6].
For the compound `CC(=O)OCC1OC(N2C(=O)/C(=C(/C)c3ccncc3)SC2=S)C(OC(C)=O)C(OC(C)=O)C1OC(C)=O` (stereo not given), the T/C is, setting by setting: (dose: 25.0 mg/kg/injection, schedule: Q01DX005 (ip), vehicle: water) 94 % of control; (dose: 50.0 mg/kg/injection, schedule: Q01DX005 (ip), vehicle: water) 97 % of control; (dose: 100.0 mg/kg/injection, schedule: Q01DX005 (ip), vehicle: water) 97 % of control; (dose: 200.0 mg/kg/injection, schedule: Q01DX005 (ip), vehicle: water) 97 % of control; (dose: 400.0 mg/kg/injection, schedule: Q01DX005 (ip), vehicle: water) 89 % of control.
Take `Cc1cc([N+](=O)[O-])c(P(=O)(O)O)cc1Cl`: the T/C is, setting by setting: under setting [16], 93 % of control; under setting [17], 91 % of control; under setting [18], 96 % of control.
In the case of `Cc1cccc(C(C#N)(CCC#N)N2CCOCC2)n1` (stereo not given), the T/C was 91 % of control under setting [19], 98 % of control under setting [20] and 94 % of control under setting [21].
Take `CC(=O)Nc1ccc(NC(=O)Nc2ccc(C)cc2)cc1`: the T/C under setting [19] is 90 % of control, the T/C under setting [20] is 90 % of control and the T/C under setting [21] was 90 % of control.
As for `COc1ccc(C(=O)Nc2ccccc2)cc1NC(=S)Nc1ccccc1`, the T/C is 95 % of control (dose: 100.0 mg/kg/injection, schedule: Q04DX002 (ip), vehicle: Klucel (hydroxypropylcellulose) (HPC)) and 98 % of control (dose: 200.0 mg/kg/injection, schedule: Q04DX002 (ip), vehicle: Klucel (hydroxypropylcellulose) (HPC)).
For `CCN(CC)C(=O)CBr`, the T/C by setting is: under setting [22], 99 % of control; under setting [23], 99 % of control; under setting [24], 97 % of control.
For the compound `Cc1ccccc1SC(Sc1ccccc1C)(Sc1ccccc1C)Sc1ccccc1C`, the T/C is, setting by setting: under setting [23], 98 % of control; under setting [24], 88 % of control; under setting [25], 95 % of control.
Regarding `CN(C)c1ccc(N=NC#N)cc1`, the T/C was 108 % of control (dose: 1.56 mg/kg/injection, schedule: Q01DX009 (ip), vehicle: saline); 105 % of control (dose: 3.12 mg/kg/injection, schedule: Q01DX009 (ip), vehicle: saline); 104 % of control (dose: 6.25 mg/kg/injection, schedule: Q01DX009 (ip), vehicle: saline with Tween-80); 105 % of control (dose: 6.25 mg/kg/injection, schedule: Q01DX009 (ip), vehicle: saline).
In the case of `CN=C(N)c1ccc(N=C(N)c2ccc(N=C(N)c3ccc(N)cc3)cc2)cc1`, the T/C runs as follows: (dose: 4.25 mg/kg/injection, schedule: Q01DX Z (ip), vehicle: water) 112 % of control; (dose: 8.5 mg/kg/injection, schedule: Q01DX Z (ip), vehicle: water) 120 % of control; (dose: 35.0 mg/kg/injection, schedule: Q01DX015 (ip), vehicle: saline) 151 % of control; (dose: 50.0 mg/kg/injection, schedule: Q01DX001 (ip), vehicle: saline) 115 % of control; (dose: 62.5 mg/kg/injection, schedule: Q01DX Z (oral), vehicle: water) 101 % of control; (dose: 125.0 mg/kg/injection, schedule: Q01DX Z (oral), vehicle: water) 103 % of control. Also, the T/C (dose: 250.0 mg/kg/injection, schedule: Q01DX Z (oral), vehicle: water) is 102 % of control.
For `CC(C)=CN1CC2CCCC(CC2)C1`, the T/C under setting [14] is 98 % of control and the T/C under setting [15] was 101 % of control.
Consider `CC(C)CC(CC(C)C)NC(C)COC(=O)C(c1ccccc1)c1ccccc1` (stereo not given), for which the T/C under setting [16] is 98 % of control, the T/C under setting [17] is 102 % of control and the T/C under setting [18] was 100 % of control.
For `CC(=O)NS(=O)(=O)c1cc(N)ccc1S(=O)(=O)c1ccc(N)cc1`, the T/C reads like this: under setting [7], 94 % of control; under setting [8], 92 % of control; under setting [9], 92 % of control.
For the compound `CCCCCCCCCCCCCCSCCSCCSCCCCCCCCCCCCCC`, the T/C is 103 % of control (dose: 12.5 mg/kg/injection, schedule: Q01DX001 (ip), vehicle: Klucel (hydroxypropylcellulose) (HPC)); 97 % of control (dose: 25.0 mg/kg/injection, schedule: Q01DX001 (ip), vehicle: Klucel (hydroxypropylcellulose) (HPC)); 89 % of control under setting [22]; 87 % of control under setting [25].
Consider `CCCCCCCCCCOP1(=O)C=C(C)CC1` (stereo not given), for which the T/C runs as follows: under setting [12], 93 % of control; under setting [13], 93 % of control.
As to `O=C(Nc1ccc(S(=O)(=O)F)cc1)/C(=C\c1ccc([N+](=O)[O-])cc1)c1cccc2ccccc12`, the T/C reads like this: under setting [1], 91 % of control; under setting [3], 99 % of control; under setting [5], 94 % of control.
On to `CCN(CC)C(=O)c1cccnc1`, for which the T/C reads like this: (dose: 12.5 mg/kg/injection, schedule: Q01DX009 (ip), vehicle: saline) 102 % of control; under setting [10], 89 % of control; under setting [11], 93 % of control; under setting [16], 102 % of control; under setting [1], 105 % of control; under setting [17], 94 % of control. For the same compound, the T/C under setting [3] is 93 % of control and the T/C under setting [18] was 90 % of control.
Regarding `COc1cc(C2=N/C(=C\c3cccc([N+](=O)[O-])c3)C(=O)O2)cc(OC)c1OC`, the T/C is 87 % of control (dose: 25.0 mg/kg/injection, schedule: Q04DX002 (ip), vehicle: saline with Tween-80); 90 % of control (dose: 50.0 mg/kg/injection, schedule: Q04DX002 (ip), vehicle: saline with Tween-80); 93 % of control and 89 % of control (dose: 100.0 mg/kg/injection, schedule: Q04DX002 (ip), vehicle: saline with Tween-80).
